Read-outs that look alike come from different tables or passages of the source.
Test system: HIV-1 (NL4-3 strain)
Test: Assay for inhibition of HIV replication (MT4-gag-GFP reporter cells, wild type cell assay)
Assay type: cell-based
Details: MT4-GFP cells infected with HIV-1 NL4-3, infected cells at 48 h / 24 h, read-out: Wild Type Cell Assay IP (% NHS)
Procedure: This assay is a kinetic assay that employs a reporter cell line (MT4-gag-GFP) to quantify the number of new cells infected in each round of replication. Briefly, MT4-GFP cells (250,000 cells/ml) were bulk-infected with HIV-1 (NL4-3 strain) at low multiplicity of infection (MOI) in RPMI+10% FBS for 24 hours. Cells were then washed once in RPMI+10% FBS and resuspended RPMI+10% or 50% normal human serum (NHS). Test compounds were serial-diluted in DMSO on ECHO. The infected MT4-GFP cells were added to a 384-well poly-D-lysine coated black plate with clear bottom in which the diluted test compounds were placed. The cells were seeded at 8,000 cells per well and the final DMSO concentration was 0.4%. The infected cells (Green GFP cells) were quantified at both 24 and 48 hours post incubation using Acumen eX3. Viral reproductive ratio (R0) was determined using the number of infected cells at 48 hours divided by the number of infected cells at 24 hours. Percent viral growth inhibition was calculated by [1−(R−Rtripledrug)/(RDMSO−Rtripledrug)]*100. Compound potency IP or IC50 was determined by a 4-parameter dose response curve analysis.

[1] = Human immunodeficiency virus 1, NL43, 50% NHS
[2] = Human immunodeficiency virus 1, NL43, 10% NHS

C[C@@H](O)CN1C(=O)c2c3c(c(O)c(=O)n2[C@@]12CC[C@H]1C[C@H]12)C(=O)N(Cc1ccc(F)c(Cl)c1)CC3 (single isomer, unassigned) [Compound 2] gave an IC50 [1] of 0.033 µM.

With CC(O)CCN1C(=O)c2c3c(c(O)c(=O)n2[C@@]12CC[C@H]1C[C@H]12)C(=O)N(Cc1ccc(F)c(Cl)c1)CC3 (single isomer, unassigned) [Compound 3] the IC50 [1] was 0.032 µM.

With O=C1c2c(c3n(c(=O)c2O)[C@@]2(CC[C@H]4C[C@H]42)N(CC(O)CF)C3=O)CCN1Cc1ccc(F)c(Cl)c1 (single isomer, unassigned) [Compound 4] the IC50 [2] was 0.0075 µM.

Work on O=C1c2c(c3n(c(=O)c2O)[C@@]2(CC[C@H]4C[C@H]42)N(CC(F)CO)C3=O)CCN1Cc1ccc(F)c(Cl)c1 (single isomer, unassigned) [Compound 5] yielded an IC50 [2] of 0.027 µM.

Work on C[C@H](O)CN1C(=O)c2c3c(c(O)c(=O)n2[C@@]12CC[C@H]1C[C@H]12)C(=O)N(Cc1ccc(F)c(Cl)c1)CC3 (single isomer, unassigned) [Compound 6] yielded an IC50 [1] of 0.053 µM.

CN1C(=O)c2c3c(c(O)c(=O)n2[C@]12CC[C@@H]1C[C@@]12COP(=O)(O)O)C(=O)N(Cc1ccc(F)c(Cl)c1)CC3 (single isomer, unassigned) [Compound 19] gave an IC50 [1] of 2.09 µM.

In the case of C[C@@H](CN1C(=O)c2c3c(c(O)c(=O)n2[C@@]12CC[C@H]1C[C@H]12)C(=O)N(Cc1ccc(F)c(Cl)c1)CC3)OP(=O)(O)O [Compound 1], the IC50 [1] is reported as 1.2 µM.

In the case of C[C@H](CN1C(=O)c2c3c(c(O)c(=O)n2[C@@]12CC[C@H]1C[C@H]12)C(=O)N(Cc1ccc(F)c(Cl)c1)CC3)OP(=O)(O)O [Compound 7], the IC50 [1] is reported as 1.09 µM.

For C[C@@H](CN1C(=O)c2c3c(c(O)c(=O)n2[C@@]12CC[C@H]1C[C@H]12)C(=O)N(Cc1ccc(F)c(Cl)c1)CC3)OC(=O)[C@@H](N)CCCCN [Compound 8], the IC50 [1] was 0.046 µM.

C[C@H](N)C(=O)O[C@@H](C)CN1C(=O)c2c3c(c(O)c(=O)n2[C@@]12CC[C@H]1C[C@H]12)C(=O)N(Cc1ccc(F)c(Cl)c1)CC3 [Compound 9] showed an IC50 [1] of 0.042 µM.

With CC(C)C[C@H](N)C(=O)O[C@@H](C)CN1C(=O)c2c3c(c(O)c(=O)n2[C@@]12CC[C@H]1C[C@H]12)C(=O)N(Cc1ccc(F)c(Cl)c1)CC3 [Compound 10] the IC50 [1] was 0.049 µM.

For CSCC[C@H](N)C(=O)O[C@@H](C)CN1C(=O)c2c3c(c(O)c(=O)n2[C@@]12CC[C@H]1C[C@H]12)C(=O)N(Cc1ccc(F)c(Cl)c1)CC3 [Compound 11], the IC50 [1] was 0.071 µM.

With CC(C)[C@H](N)C(=O)O[C@@H](C)CN1C(=O)c2c3c(c(O)c(=O)n2[C@@]12CC[C@H]1C[C@H]12)C(=O)N(Cc1ccc(F)c(Cl)c1)CC3 [Compound 12] the IC50 [1] was 0.054 µM.

In the case of C[C@@H](CN1C(=O)c2c3c(c(O)c(=O)n2[C@@]12CC[C@H]1C[C@H]12)C(=O)N(Cc1ccc(F)c(Cl)c1)CC3)OC(=O)CN(C)C [Compound 13], the IC50 [1] is reported as 0.069 µM.

With CN1C(=O)c2c3c(c(O)c(=O)n2[C@@]12CC[C@@H]1C[C@@]12CO)C(=O)N(Cc1ccc(F)c(Cl)c1)CC3 [Compound 14] the IC50 [1] was 0.014 µM.

CN1C(=O)c2c3c(c(O)c(=O)n2[C@]12CC[C@@H]1C[C@@]12CO)C(=O)N(Cc1ccc(F)c(Cl)c1)CC3 [Compound 15] was tested, and the IC50 [1] was 0.024 µM.

With CSCC12CC1CCC21NC(=O)c2c3c(c(O)c(=O)n21)C(=O)N(Cc1ccc(F)c(Cl)c1)CC3 (stereo not shown) [Compound 16] the IC50 [1] was 0.02 µM.

For CSCC12CC1CCC21NC(=O)c2c3c(c(O)c(=O)n21)C(=O)N(Cc1ccc(F)c(Cl)c1)CC3 (stereo not shown) [Compound 17], the IC50 (50% NHS) was 0.028 µM.

In the case of CS(=O)(=O)CC12CC1CCC21NC(=O)c2c3c(c(O)c(=O)n21)C(=O)N(Cc1ccc(F)c(Cl)c1)CC3 (stereo not shown) [Compound 18], the IC50 [1] is reported as 0.037 µM.

Reference: patent US20150218164A1, “SUBSTITUTED NAPHTHYRIDINEDIONE DERIVATIVES AS HIV INTEGRASE INHIBITORS” (MERCK SHARP & DOHME CORP., priority 2012, published 2015)
